Data on 15 compounds can be found in ChEMBL document CHEMBL3352263, “Synthesis and biological evaluation of bivalent cannabinoid receptor ligands based on hCB₂R selective benzimidazoles reveal unexpected intrinsic properties” (Bioorg Med Chem, 2014).

pEC50: −log10 of the molar value.

As usually defined, the Emax is the maximal effect, on the per cent scale that the assay sets. For orientation: pEC50 means −log10 of the EC50, conventionally taken in molar units.

Experiment [1] deals with T1, Cannabinoid receptor 2 (Homo sapiens, UniProt P34972). Briefly: Agonist activity at human CB2 receptor expressed in Sf9 cells coexpressing Galpha i2 assessed as Galpha GTPase activity using [gamma-33P]GTP at 100 uM by scintillation counting.
T1 sequence (P34972 whole entry): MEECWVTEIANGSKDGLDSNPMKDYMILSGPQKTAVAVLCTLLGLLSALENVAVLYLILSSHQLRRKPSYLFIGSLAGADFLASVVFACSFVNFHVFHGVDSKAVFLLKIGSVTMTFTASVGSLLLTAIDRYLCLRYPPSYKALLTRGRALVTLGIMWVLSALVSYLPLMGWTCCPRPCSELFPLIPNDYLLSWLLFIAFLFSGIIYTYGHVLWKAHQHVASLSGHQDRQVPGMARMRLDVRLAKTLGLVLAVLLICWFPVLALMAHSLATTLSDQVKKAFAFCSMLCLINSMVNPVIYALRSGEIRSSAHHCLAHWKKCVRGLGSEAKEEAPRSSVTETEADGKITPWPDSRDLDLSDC
Experiment [2] concerns the target T1, Cannabinoid receptor 2. Briefly: Antagonist activity at human CB2 receptor expressed in Sf9 cells coexpressing Galpha i2 assessed as Galpha GTPase activity using [gamma-33P]GTP at 100 uM by scintillation counting in presence of 30 nM CP55940. Type of experiment: functional.
Experiment [3] has as its target T1, Cannabinoid receptor 2. The experiment in a line: Inverse agonist activity at human CB2 receptor expressed in Sf9 cells coexpressing Galpha i2 assessed as Galpha GTPase activity using [gamma-33P]GTP by scintillation counting in presence of CP55940.
Experiment [4] has as its target T2, Cannabinoid receptor 1 (Homo sapiens, UniProt P21554). The experiment in a line: Agonist activity at human CB1 receptor expressed in Sf9 cells coexpressing Galpha i2 assessed as Galpha GTPase activity using [gamma-33P]GTP at 100 uM by scintillation counting.
Experiment [5] has as its target T2, Cannabinoid receptor 1. Briefly: Inverse agonist activity at human CB1 receptor expressed in Sf9 cells coexpressing Galpha i2 assessed as Galpha GTPase activity using [gamma-33P]GTP by scintillation counting in presence of CP55940.
The target of experiment [6] is T2, Cannabinoid receptor 1. The experiment in a line: Antagonist activity at human CB1 receptor expressed in Sf9 cells coexpressing Galpha i2 assessed as Galpha GTPase activity using [gamma-33P]GTP at 100 uM by scintillation counting in presence of 30 nM CP55940. The experiment is classed as functional.
The target in experiment [7] is T2, Cannabinoid receptor 1. The experiment in a line: Agonist activity at human CB1 receptor expressed in Sf9 cells coexpressing Galpha i2 assessed as Galpha GTPase activity using [gamma-33P]GTP by scintillation counting.
For experiment [8], the target named is T1, Cannabinoid receptor 2. Briefly: Agonist activity at human CB2 receptor expressed in Sf9 cells coexpressing Galpha i2 assessed as Galpha GTPase activity using [gamma-33P]GTP by scintillation counting.
For a further experiment, the species on record is Homo sapiens. Briefly: Selectivity ratio of EC50 for human CB1 receptor to EC50 for human CB2 receptor.
The target of experiment [9] is T1, Cannabinoid receptor 2. The experiment in a line: Antagonist activity at human CB2 receptor expressed in Sf9 cells coexpressing Galpha i2 assessed as Galpha GTPase activity using [gamma-33P]GTP by scintillation counting in presence of 30 nM CP55940. Type of experiment: functional.

T2 sequence (P21554 whole entry): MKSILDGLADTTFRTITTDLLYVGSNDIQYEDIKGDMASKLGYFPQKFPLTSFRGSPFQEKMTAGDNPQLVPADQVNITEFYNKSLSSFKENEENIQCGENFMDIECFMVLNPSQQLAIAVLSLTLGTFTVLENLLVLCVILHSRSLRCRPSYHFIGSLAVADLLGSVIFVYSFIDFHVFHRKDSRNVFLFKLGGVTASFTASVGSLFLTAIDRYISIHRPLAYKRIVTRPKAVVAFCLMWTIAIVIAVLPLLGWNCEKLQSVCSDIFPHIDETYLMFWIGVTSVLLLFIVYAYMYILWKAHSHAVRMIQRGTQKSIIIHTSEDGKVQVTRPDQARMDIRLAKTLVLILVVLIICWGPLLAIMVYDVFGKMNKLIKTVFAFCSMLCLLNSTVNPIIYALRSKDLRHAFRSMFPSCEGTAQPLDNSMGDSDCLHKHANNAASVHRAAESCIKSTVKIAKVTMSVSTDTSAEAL

As for `CCOc1ccc(Cc2nc3cc(C(=O)N(CC)CC)ccc3n2CCCCN(C)CCCCn2c(Cc3ccc(OCC)cc3)nc3cc(C(=O)N(CC)CC)ccc32)cc1`, the Emax at Cannabinoid receptor 2 [1] was 5%; at Cannabinoid receptor 2 [2], 14%; at Cannabinoid receptor 1 [4], -40%. On Cannabinoid receptor 2 [3], the pEC50 was 4.24.

On to `CCOc1ccc(Cc2nc3cc(C(=O)NCCCCCCCCCCN(C)C)ccc3n2CCC(C)C)cc1`, for which the Emax at Cannabinoid receptor 2 [1] is 0%; on Cannabinoid receptor 2 [2], 20%; at Cannabinoid receptor 1 [4], -58%. Besides, the pEC50 at Cannabinoid receptor 2 [3] is 4.71; at Cannabinoid receptor 1 [5], 4.62.

Take `CCOc1ccc(Cc2nc3cc(C(=O)NCCCN(C)C)ccc3n2CCC(C)C)cc1`: the Emax at Cannabinoid receptor 2 [1] was 11%; at Cannabinoid receptor 2 [2] it was 65%; at Cannabinoid receptor 1 [4], -5%; on Cannabinoid receptor 1 [6], 71%.

For `CCOc1ccc(Cc2nc3cc(C(=O)NCCCN(C)CCCNC(=O)c4ccc5c(c4)nc(Cc4ccc(OCC)cc4)n5CCC(C)C)ccc3n2CCC(C)C)cc1`, the Emax at Cannabinoid receptor 2 [1] was -11%; at Cannabinoid receptor 2 [2], -32%; at Cannabinoid receptor 1 [4], -83%. Also, the pEC50 was 5.54 at Cannabinoid receptor 2 [3] and 4.76 on Cannabinoid receptor 1 [5].

Turning to `CCOc1ccc(Cc2nc3cc(C(=O)N(CC)CC)ccc3n2CCC(C)C)cc1`, the Emax at Cannabinoid receptor 2 [1] worked out at 192%; at Cannabinoid receptor 2 [2], 167%; on Cannabinoid receptor 1 [4], 48%. Also, at Cannabinoid receptor 1 [7], the pEC50 is 5.49.

Take `CCOc1ccc(Cc2nc3cc(C(=O)N(CC)CC)ccc3n2CCCN(C)CCCn2c(Cc3ccc(OCC)cc3)nc3cc(C(=O)N(CC)CC)ccc32)cc1`: the Emax is -2% at Cannabinoid receptor 2 [1], 5% at Cannabinoid receptor 2 [2] and -43% on Cannabinoid receptor 1 [4]. In addition, the pEC50 on Cannabinoid receptor 2 [3] was 4.92; at Cannabinoid receptor 1 [5] it was 4.46.

Turning to `Cc1c(C(=O)NN2CCCCC2)nn(-c2ccc(Cl)cc2Cl)c1-c1ccc(I)cc1`, the figures for the Emax at Cannabinoid receptor 1 [4] and at Cannabinoid receptor 1 [6] were -84% and -8%, respectively.

With `CCOc1ccc(Cc2nc3cc(C(=O)N(CC)CC)ccc3n2CCCCCCCCCCN(C)CCCCCCCCCCn2c(Cc3ccc(OCC)cc3)nc3cc(C(=O)N(CC)CC)ccc32)cc1`, the Emax at Cannabinoid receptor 2 [1] is -11%; on Cannabinoid receptor 2 [2], -33%; on Cannabinoid receptor 1 [4], -97%. Besides, the pEC50 is 5.18 at Cannabinoid receptor 2 [3] and 5.20 at Cannabinoid receptor 1 [5].

For `COc1ccc(C(=O)c2c(C)n(CCN3CCOCC3)c3cc(I)ccc23)cc1`, the Emax is 5% at Cannabinoid receptor 2 [1] and 15% on Cannabinoid receptor 2 [2]. Besides, the pEC50 on Cannabinoid receptor 2 [3] was 6.22.

For `CCOc1ccc(Cc2nc3cc(C(=O)OC)ccc3n2CCC(C)C)cc1`, the Emax is 37% at Cannabinoid receptor 2 [1], 121% at Cannabinoid receptor 2 [2], -3% on Cannabinoid receptor 1 [4] and 98% at Cannabinoid receptor 1 [6]. The pEC50 at Cannabinoid receptor 2 [8] was 6.53.

Turning to `CCCCn1c(Cc2ccc(OCC)cc2)nc2cc(C(=O)N(CC)CC)ccc21`, the Emax on Cannabinoid receptor 2 [1] was 198%; on Cannabinoid receptor 2 [2] it was 162%; at Cannabinoid receptor 1 [4], 67%. For the same compound, the pEC50 at Cannabinoid receptor 2 [8] is 6.76; at Cannabinoid receptor 1 [7], 5.87. Besides, the Ratio EC50 in the experiment listed under Homo sapiens worked out at 8.

Turning to `CCOc1ccc(Cc2nc3cc(C(=O)NCCCCCCCCCCN(C)CCCCCCCCCCNC(=O)c4ccc5c(c4)nc(Cc4ccc(OCC)cc4)n5CCC(C)C)ccc3n2CCC(C)C)cc1`, the results for the Emax on Cannabinoid receptor 2 [1], on Cannabinoid receptor 2 [2] and on Cannabinoid receptor 1 [4] were 3%, 28% and -42%, respectively. Besides, the figures for the pEC50 on Cannabinoid receptor 2 [3] and on Cannabinoid receptor 1 [5] were 4.78 and 4.59, respectively.

In the case of `Cc1ccc(Cn2nc(C(=O)NC3C4(C)CCC(C4)C3(C)C)cc2-c2ccc(Cl)c(C)c2)cc1` (stereo not given), the Emax was -3% at Cannabinoid receptor 2 [1] and 9% at Cannabinoid receptor 2 [2].

`CCOc1ccc(Cc2nc3cc(C(=O)N(CC)CC)ccc3n2CCCCCCCCCCN(C)C)cc1`: the Emax at Cannabinoid receptor 2 [1] is 1%; at Cannabinoid receptor 2 [2], 60%; on Cannabinoid receptor 1 [4], -55%. For the same compound, the pEC50 on Cannabinoid receptor 2 [3] is 4.50; on Cannabinoid receptor 1 [5], 4.60.

In the case of `CCOc1ccc(Cc2nc3cc(C(=O)N(CC)CC)ccc3n2CCCN(C)C)cc1`, the Emax on Cannabinoid receptor 2 [1] was 106%; at Cannabinoid receptor 2 [2] it was 69%; at Cannabinoid receptor 1 [4], -3%; at Cannabinoid receptor 1 [6], 95%. The pEC50 on Cannabinoid receptor 2 [9] is 4.90.
